From patent US7939550B2, “Aminopyrazole derivatives, process for the preparation thereof, and composition for preventing or treating ischemic diseases containing the same” (Korea Research Institute of Chemical Technology, priority 2006, dated 2011)

These compounds were tested on Cardiomyocyte cell line H9c2 cells (assay: Inhibitory effect on ischemic cell death (chemical hypoxia, DAPI staining)). Details: Rattus norvegicus, derivative 10 μM in DMSO, 30 min pretreatment, then chemical hypoxia solution 1 to 2 hours, DAPI stain, fluorescence microscope, DMSO control 25.86385, read-out: Apoptosis (%).
Format: cell-based
Experimental: The aminopyrazole derivatives of the present invention were examined for ischemic cell death inhibitory effect in cells according to the following procedure.
Cardiomyocyte cell line H9c2 cells were cultured in DMEM (Dulbecco's modified Eagle's medium) supplemented with 10% fetal bovine serum and 1% penicillin/streptomycin (100× solution). The cells were grown in 35 mm dishes such that the number thereof becomes 1×10^4, and cultured at 37° C. for 48 hours in a CO2 incubator. The cells were treated with 0.1% DMSO only (control), or the solutions dissolving the derivatives of Examples 1 to 30 (10 μM) in DMSO respectively. After 30 minutes, the cells were washed with PBS, and continuously treated with the DMSO solution (control) or the above solutions dissolving the derivatives together with chemical hypoxia solution (106 mM NaCl, 4.4 mM KCl, 1 mM MgCl2, 38 mM NaHCO3, 2.5 mM CaCl2, 20 mM 2-deoxy glucose, 1 mM NaCN) for 1 to 2 hours, while evaluating the cell damage by microscope. At the time when the sufficient damage were observed, the cells were washed with 1 ml of PBS twice, and then treated to fix with 1 ml of 3.7% formaldehyde. The cells obtained were washed with 1 ml of PBS again, stained with DAPI, and then washed with 1 ml of PBS in three times. The cell death of the cells was observed by a fluorescence microscope, and the degree of the observed cell death was converted to percentages.

In order of falling cytotoxicity at 10 µM:
1. COC(=O)c1nn(CCc2ccccc2)cc1NC(=O)CSc1ccc(C)c(C)c1 [Example 11, 4-[2-(3,4-dimethyl-phenylsulfanyl)-acetylamino]-1-phenethyl-1H-pyrazole-3-carboxylic acid methyl ester]  15.7%
2. COC(=O)c1c(NC(=O)CSc2ccc(Br)cc2)cnn1C [Example 17, 4-[2-(4-bromo-phenylsulfanyl)-acetylamino]-2-methyl-2H-pyrazole-3-carboxylic acid methyl ester]  13.9%
3. COC(=O)c1nn(C)cc1NC(=O)CSc1ccc(Br)cc1 [Example 14, 4-[2-(4-bromo-phenylsulfanyl)-acetylamino]-1-methyl-1H-pyrazole-3-carboxylic acid methyl ester]  13.3%
4. O=C(CSc1ccc(Br)cc1)Nc1cn(CCc2ccccc2)nc1C1=NCCO1 [Example 24, 2-(4-bromo-phenylsulfanyl)-N-[3-(4,5-dihydro-oxazol-2-yl)-1-phenethyl-1H-pyrazol-4-yl]-acetamide]  12.7%
5. COC(=O)c1nn(Cc2ccccc2)cc1NC(=O)CSc1ccc(Br)cc1 [Example 12, 4-[2-(4-bromo-phenylsulfanyl)-acetylamino]-1-benzyl-1H-pyrazole-3-carboxylic acid methyl ester]  11.5%
6. COC(=O)c1nn(C)cc1NC(=O)CSc1ccccc1 [Example 15, 4-[2-phenylsulfanylacetylamino]-1-methyl-1H-pyrazole-3-carboxylic acid methyl ester]  11.3%
7. COC(=O)c1nn(CCc2ccccc2)cc1NC(=O)CSc1ccccc1 [Example 2, 4-[2-(phenylsulfanyl)-acetylamino]-1-phenethyl-1H-pyrazole-3-carboxylic acid methyl ester]  11%
8. COC(=O)c1c(NC(=O)CSc2ccc(Br)cc2)cnn1CCc1ccccc1 [Example 16, 4-[2-(4-bromo-phenylsulfanyl)-acetylamino]-2-phenethyl-2H-pyrazole-3-carboxylic acid methyl ester]  10.8%
9. COC(=O)c1cc(NC(=O)CSc2ccccc2)n(C)n1 [Example 22, 1-methyl-5-(2-phenylsulfanyl-acetylamino)-1H-pyrazole-3-carboxylic acid methyl ester]  10.7%
10. COC(=O)c1nn(Cc2ccccc2)cc1NC(=O)CSc1ccccc1 [Example 13, 4-[2-phenylsulfanylacetylamino]-1-benzyl-1H-pyrazole-3-carboxylic acid methyl ester]  9.81%
11. COC(=O)c1nn(CCc2ccccc2)cc1NC(=O)CNc1ccc(Br)cc1 [Example 29, 4-[2-(4-bromo-phenylamino)-acetylamino]-1-phenethyl-1H-pyrazole-3-carboxylic acid methyl ester]  9.31%
12. COC(=O)c1nn(CCc2ccccc2)cc1NC(=O)CCSc1ccc(Br)cc1 [Example 18]  8.75%
13. COC(=O)c1cc(NC(=O)CSc2ccc(Br)cc2)n(C)n1 [Example 21, 5-[2-(4-bromo-phenylsulfanyl)-acetylamino]-1-methyl-1H-pyrazole-3-carboxylic acid methyl ester]  8.33%
14. COC(=O)c1nn(CCc2ccccc2)cc1NC(=O)CSc1cccc(OC)c1 [Example 3, 4-[2-(3-methoxy-phenylsulfanyl)-acetylamino]-1-phenethyl-1H-pyrazole-3-carboxylic acid methyl ester]  8.26%
15. CCOC(=O)c1cnn(CCc2ccccc2)c1NC(=O)CSc1ccc(Br)cc1 [Example 19, 5-[2-(4-bromo-phenylsulfanyl)-acetylamino]-1-phenethyl-1H-pyrazole-4-carboxylic acid ethyl ester]  8.19%
16. O=C(CSc1ccc(Br)cc1)Nc1cn(CCc2ccccc2)nc1C(=O)O [Example 23, 4-[2-(4-bromo-phenylsulfanyl)-acetylamino]-1-phenethyl-1H-pyrazole-3-carboxylic acid]  7.76%
17. COC(=O)c1nn(CCc2ccccc2)cc1NC(=O)CS(=O)(=O)c1ccccn1 [Example 10, 4-[2-(2-pyridylsulfonyl)-acetylamino]-1-phenethyl-1H-pyrazole-3-carboxylic acid methyl ester]  7.27%
18. O=C(CSc1ccc(Br)cc1)Nc1cn(CCc2ccccc2)nc1CO [Example 26, 2-(4-bromo-phenylsulfanyl)-N-(3-hydroxymethyl-1-phenethyl-4H-pyrazol-4-yl)-acetamide]  7.27%
19. COC(=O)c1nn(CCc2ccccc2)cc1NC(=O)CSc1ccc(F)cc1 [Example 7, 4-[2-(4-fluoro-phenylsulfanyl)-acetylamino]-1-phenethyl-1H-pyrazole-3-carboxylic acid methyl ester]  6.49%
20. COC(=O)c1nn(CCc2ccccc2)cc1NC(=O)CSc1ccccc1N [Example 5, 4-[2-(2-amino-phenylsulfanyl)-acetylamino]-1-phenethyl-1H-pyrazole-3-carboxylic acid methyl ester]  6.48%
21. COC(=O)c1nn(CCc2ccccc2)cc1NC(=O)C(Sc1ccc(Br)cc1)c1ccccc1 (stereo not drawn) [Example 20, 4-[2-(4-bromo-phenylsulfanyl)-2-phenyl-acetylamino]-1-phenethyl-1H-pyrazole-3-carboxylic acid methyl ester]  6.07%
22. NC(=O)c1nn(CCc2ccccc2)cc1NC(=O)CSc1ccc(Br)cc1 [Example 25, 4-[2-(4-bromo-phenylsulfanyl)-acetylamino]-1-phenethyl-1H-pyrazole-3-carboxylic acid amide]  6.07%
23. COC(=O)c1nn(CCc2ccccc2)cc1NC(=O)CSc1ccc(Br)cc1 [Example 1, 4-[2-(4-bromo-phenylsulfanyl)-acetylamino]-1-phenethyl-1H-pyrazole-3-carboxylic acid methyl ester]  5.79%
24. COC(=O)c1nn(CCc2ccccc2)cc1NC(=O)CSc1ccccn1 [Example 8, 4-[2-(2-pyridylsulfanyl)-acetylamino]-1-phenethyl-1H-pyrazole-3-carboxylic acid methyl ester]  5.65%
25. COC(=O)c1nn(CCc2ccccc2)cc1NC(=O)CSc1ccc(C)cc1 [Example 6, 4-[2-(4-methyl-phenylsulfanyl)-acetylamino]-1-phenethyl-1H-pyrazole-3-carboxylic acid methyl ester]  5.43%
26. COCc1nn(CCc2ccccc2)cc1NC(=O)CSc1ccc(Br)cc1 [Example 30, 2-(4-bromo-phenylsulfanyl)-N-(3-methoxymethyl-1-phenethyl-1H-pyrazol-4-yl)-acetamide]  5.22%
27. COC(=O)c1nn(CCc2ccccc2)cc1NC(=O)CCc1ccccc1 [Example 27, 4-[3-phenyl-propionylamino]-1-phenethyl-4H-pyrazole-3-carboxylic acid methyl ester]  5.08%
28. COC(=O)c1nn(CCc2ccccc2)cc1NC(=O)COc1ccc(Br)cc1 [Example 28, 4-[2-(4-bromophenoxy)-acetylamino]-1-phenethyl-1H-pyrazole-3-carboxylic acid methyl ester]  3.74%
29. COC(=O)c1nn(CCc2ccccc2)cc1NC(=O)CSc1ccc([N+](=O)[O-])cc1 [Example 4, 4-[2-(4-nitro-phenylsulfanyl)-acetylamino]-1-phenethyl-1H-pyrazole-3-carboxylic acid methyl ester]  3.74%
30. COC(=O)c1nn(CCc2ccccc2)cc1NC(=O)C[S+]([O-])c1ccccn1 (stereo not drawn) [Example 9, 4-[2-(2-pyridylsulfinyl)-acetylamino]-1-phenethyl-1H-pyrazole-3-carboxylic acid methyl ester]  3.74%
